Results on 31 compounds are retold here after patent publication US9102591B2, “Benzamides” (H. Lundbeck A/S, priority 2012, dated 2015).

The target in the experiment is P2X7 receptor (Homo sapiens (Human), UniProt Q99572). The experiment in a line: P2X7 FLIPR assay (BzATP-stimulated calcium fluorescence, antagonist IC50). It counts as cell-based. Here is the method: This example illustrates representative assays for use in evaluating the test compounds for antagonist activity. Compounds of the present invention were tested in vitro for their ability to act as antagonists to the P2X7receptor. […]
P2X7 receptor, sequence (Q99572 whole entry): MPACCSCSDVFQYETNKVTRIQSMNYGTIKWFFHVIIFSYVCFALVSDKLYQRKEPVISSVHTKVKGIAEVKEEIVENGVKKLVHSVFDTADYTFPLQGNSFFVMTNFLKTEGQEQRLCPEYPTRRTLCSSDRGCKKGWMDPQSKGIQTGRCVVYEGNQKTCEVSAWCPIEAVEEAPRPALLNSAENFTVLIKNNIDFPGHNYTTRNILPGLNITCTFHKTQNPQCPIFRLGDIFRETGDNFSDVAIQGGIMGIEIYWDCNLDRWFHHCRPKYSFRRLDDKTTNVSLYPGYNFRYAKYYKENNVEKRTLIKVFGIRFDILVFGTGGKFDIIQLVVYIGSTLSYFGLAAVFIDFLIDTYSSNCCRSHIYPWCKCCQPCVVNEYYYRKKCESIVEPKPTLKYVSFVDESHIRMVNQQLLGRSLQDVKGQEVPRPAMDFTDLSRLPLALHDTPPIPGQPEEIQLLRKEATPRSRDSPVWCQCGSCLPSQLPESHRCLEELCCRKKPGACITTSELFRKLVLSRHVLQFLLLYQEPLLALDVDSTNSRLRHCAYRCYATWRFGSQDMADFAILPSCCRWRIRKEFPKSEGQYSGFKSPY
Cells were plated to cell density of approximately 15,000 cells/well in 384-well assay plates (50 μl/well) with 1.5% low serum media (DMEM, 1.5% FBS, 1% L-glut (2 mM), 10 mM HUES, 1% P/S). Cells were plated 24 hours prior to assay. Cells expressing human, rat or mouse P2X7 receptor were assayed in the following manner.
Fluo-4 NW dye mix (Molecular Probes, Inc., Eugene, Oreg., USA) was prepared in buffer (see manufacturer's instructions). Cell plates were removed from the 37° C. incubator, the media discarded and then 30 μL of dye was added to each well. Plates were placed in the 37° C., non-CO2 incubator for 30 minutes and then room temperature for 30 minutes.
Compound mixtures (A) were added to assay plates containing cells and placed at room temperature for 30 minutes, then BzATP (B) was added. Fluorescence was read using the Tetra FLIPR® (Molecular Devices, Inc., Sunnyvale, Calif., USA) and IC50 values were calculated by standard methods to determine antagonist activity.

Where two headings read alike, the source gives them in different places.

Usually IC50 stands for the midpoint of a concentration-inhibition curve. Turning to `O=C(NCC1(c2ccc(C3CC3)nc2)CCC(F)(F)CC1)c1cccc(Cl)c1Cl` [2,3-dichloro-N-((1-(6-cyclopropylpyridin-3-yl)-4,4-difluorocyclohexyl)methyl)benzamide], the IC50 worked out at 1.3 nM.

As to `O=C(NCC(CC1(C(F)(F)F)CC1)c1ccc(C(F)(F)F)nc1)c1cccc(F)c1Cl` (single isomer, unassigned; (+)) [(+)2-chloro-3-fluoro-N-[3-[1-(trifluoromethyl)cyclopropyl]-2] [(+)2-chloro-3-fluoro-N-[3-[1-(trifluoromethyl)cyclopropyl]-2-[6-(trifluoromethyl)-3-pyridyl]propyl]benzamide], the half-maximal inhibitory concentration (IC50) came to 7.2 nM.

As for `O=C(NCC(CC1CC1)c1cnc(C(F)(F)F)nc1)c1cccc(F)c1Cl` (stereo not shown) [2-chloro-N-(3-cyclopropyl-2-(2-(trifluoromethyl)pyrimidin-5-] [2-chloro-N-(3-cyclopropyl-2-(2-(trifluoromethyl)pyrimidin-5-yl)propyl)-3-fluorobenzamide], the IC50 was 14 nM.

Regarding `Cc1c(C#N)cccc1C(=O)NCC1(c2ccc(C(F)(F)F)nc2)CCC(F)(F)CC1` [3-cyano-N-((4,4-difluoro-1-(6-(trifluoromethyl)pyridin-3-yl)cyclohexyl)methyl)-2-methylbenzamide], the 50% inhibitory concentration (IC50) worked out at 45 nM.

Take `Cc1ncc(C(CNC(=O)c2cccc(Cl)c2Cl)CC2(C(F)(F)F)CC2)cn1` (single isomer, unassigned; (-)) [(−)2,3-dichloro-N-[2-(2-methylpyrimidin-5-yl)-3-[1-(trifluor] [(−)2,3-dichloro-N-[2-(2-methylpyrimidin-5-yl)-3-[1-(trifluoromethyl)cyclopropyl]propyl]benzamide]: the IC50 was found to be 64 nM.

Turning to `CC(CNC(=O)c1cccc(F)c1Cl)(CC1CC1)c1cnc(C(F)(F)F)nc1` (single isomer, unassigned; (+)) [(+)2-chloro-N-[3-cyclopropyl-2-methyl-2-[2-(trifluoromethyl)] [(+)2-chloro-N-[3-cyclopropyl-2-methyl-2-[2-(trifluoromethyl)pyrimidin-5-yl]propyl]-3-fluoro-benzamide], the concentration for half-maximal inhibition (IC50) is 360 nM.

Regarding `O=C(NCC(CC1CC1)c1ccc(C(F)(F)F)nc1)c1ccccc1Cl` (single isomer, unassigned; (-)) [Example 4b, (−)-2-Chloro-N-[3-cyclopropyl-2-[6-(trifluoromethyl)-3-pyridyl]propyl]benzamide], the IC50 was found to be 2.3 nM.

For `O=C(NCC(CC1(C(F)F)CC1)c1ccc(C2CC2)nc1)c1cccc(Cl)c1Cl` (stereo not shown) [2,3-dichloro-N-[2-(6-cyclopropyl-3-pyridyl)-3-[1-(difluoromethyl)cyclopropyl]propyl]benzamide], the half-inhibitory concentration (IC50) is 0.76 nM.

Turning to `COc1cccc(C(=O)NCC2(c3ccc(C(F)(F)F)nc3)CCC(F)(F)CC2)c1Cl` [2-chloro-N-((4,4-difluoro-1-(6-(trifluoromethyl)pyridin-3-yl)cyclohexyl)methyl)-3-methoxybenzamide], the concentration for half-maximal inhibition (IC50) stood at 7.1 nM.

As to `Cc1cccc(C(=O)NCC2(c3ccc(C(F)(F)F)nc3)CCC(F)(F)CC2)c1Cl` [2-chloro-N-((4,4-difluoro-1-(6-(trifluoromethyl)pyridin-3-yl)cyclohexyl)methyl)-3-methylbenzamide], the IC50 came out at 0.54 nM.

Regarding `CC(C)(O)c1ccc(C2(CNC(=O)c3cccc(Cl)c3Cl)CCC(F)(F)CC2)cn1` [2,3-dichloro-N-[[4,4-difluoro-1-[6-(1-hydroxy-1-methyl-ethyl)-3-pyridyl]cyclohexyl]methyl]benzamide], the half-inhibitory concentration (IC50) was 23 nM.

Take `O=C(NCC1(c2ccc(F)nc2)CCC(F)(F)CC1)c1cc(F)ccc1F` [N-((4,4-difluoro-1-(6-fluoropyridin-3-yl)cyclohexyl)methyl)-2,5-difluorobenzamide]: the IC50 was 1500 nM.

Regarding `Cc1ncc(C(CNC(=O)c2cccc(Cl)c2Cl)C2CCOCC2)cn1` (single isomer, unassigned; (-)) [(−)2,3-dichloro-N-[2-(2-methylpyrimidin-5-yl)-2-tetrahydropy] [(−)2,3-dichloro-N-[2-(2-methylpyrimidin-5-yl)-2-tetrahydropyran-4-yl-ethyl]benzamide], the concentration for half-maximal inhibition (IC50) came out at 58 nM.

As for `O=C(NCC1(c2ccc(Cl)cc2)CCOCC1)c1cc(Br)ccc1Cl` [5-Bromo-2-chloro-N-[4-(4-chloro-phenyl)-tetrahydro-pyran-4-ylmethyl]-benzamide], the concentration for half-maximal inhibition (IC50) amounted to 130 nM.

Consider `O=C(NCC(CC1(F)CC1)c1cnc(C(F)(F)F)nc1)c1cccc(Cl)c1Cl` (stereo not shown) [2,3-dichloro-N-[3-(1-fluorocyclopropyl)-2-[2-(trifluoromethyl)pyrimidin-5-yl]propyl]benzamide], for which the IC50 is 9.3 nM.

With `O=C(NCC(CC1CC1)c1cnc(C(F)(F)F)nc1)c1ccccc1Cl` (stereo not shown) [2-chloro-N-(3-cyclopropyl-2-(2-(trifluoromethyl)pyrimidin-5-] [2-chloro-N-(3-cyclopropyl-2-(2-(trifluoromethyl)pyrimidin-5-yl)propyl)benzamide], the IC50 is 13 nM.

Take `O=C(NCC(CC1CC1)c1ccc(C(F)(F)F)nc1)c1cccc(Cl)c1Cl` (single isomer, unassigned; (+)) [(+)2,3-dichloro-N-[3-cyclopropyl-2-[6-(trifluoromethyl)-3-py] [(+)2,3-dichloro-N-[3-cyclopropyl-2-[6-(trifluoromethyl)-3-pyridyl]propyl]benzamide]: the half-maximal inhibitory concentration (IC50) turned out to be 2.6 nM.

For the compound `Cc1ccccc1C(=O)NCC1(c2cccnc2)CCCC1` [2-Methyl-N-(1-pyridin-3-yl-cyclopentylmethyl)-benzamide], the concentration for half-maximal inhibition (IC50) is 3600 nM.

Take `COc1ccccc1C(=O)NCC(CC1CC1)c1ccc(C(F)(F)F)nc1` (single isomer, unassigned) [Example 4o, (−)—N-(3-cyclopropyl-2-(6-(trifluoromethyl)pyridin-3-yl)propyl)-2-methoxybenzamide]: where the note is “listed as (−)N-[3-cyclopropyl-2-[6-(trifluoromethyl)-3-pyridyl]propyl]-2-methoxy-benzamide”, the concentration for half-maximal inhibition (IC50) was found to be 53 nM.

`O=C(NCC1(c2ccc(C(F)(F)F)nc2)CCC(F)(F)CC1)c1cccc(Cl)c1Cl` [2,3-dichloro-N-((4,4-difluoro-1-(6-(trifluoromethyl)pyridin-3-yl)cyclohexyl)methyl)benzamide]: the 50% inhibitory concentration (IC50) worked out at 1.2 nM.

As for `O=C(NCC(CC1CC1)c1cnc(C(F)(F)F)nc1)c1cccc(Cl)c1Cl` (stereo not shown) [2,3-dichloro-N-[3-cyclopropyl-2-[2-(trifluoromethyl)pyrimidi] [2,3-dichloro-N-[3-cyclopropyl-2-[2-(trifluoromethyl)pyrimidin-5-yl]propyl]benzamide], the IC50 came out at 0.88 nM.

Turning to `Cc1ccc(Cl)c(C(=O)NCC2(c3ccc(Cl)cc3)CCOCC2)c1` [2-Chloro-N-[4-(4-chloro-phenyl)-tetrahydro-pyran-4-ylmethyl]-5-methyl-benzamide], the half-inhibitory concentration (IC50) is 62 nM.

Regarding `O=C(NCC(c1ccncc1)c1cnc(C(F)(F)F)nc1)c1cccc(Cl)c1Cl` (stereo not shown) [2,3-dichloro-N-[2-(4-pyridyl)-2-[2-(trifluoromethyl)pyrimidin-5-yl]ethyl]benzamide], the half-inhibitory concentration (IC50) is 6.2 nM.

As to `COCCC(CNC(=O)c1cccc(Cl)c1Cl)c1cnc(C(F)(F)F)nc1` (stereo not shown) [2,3-dichloro-N-[4-methoxy-2-[2-(trifluoromethyl)pyrimidin-5-yl]butyl]benzamide], the half-maximal inhibitory concentration (IC50) came out at 2200 nM.

Turning to `Cc1ccc(Cl)c(C(=O)NCC2(c3ccc(F)nc3)CCC(F)(F)CC2)c1` [2-chloro-N-[[4,4-difluoro-1-(6-fluoro-3-pyridyl)cyclohexyl]methyl]-5-methyl-benzamide], the 50% inhibitory concentration (IC50) is 0.76 nM.

As for `O=C(NCC1(c2ccc(Cl)cc2)CCOCC1)c1cc(F)cc(F)c1F` [N-[4-(4-Chloro-phenyl)-tetrahydro-pyran-4-ylmethyl]-2,3,5-trifluoro-benzamide], the concentration for half-maximal inhibition (IC50) stood at 3600 nM.

Regarding `Cc1ccccc1C(=O)NCC1(c2ccc(C(F)(F)F)nc2)CCC(F)(F)CC1` [N-((4,4-difluoro-1-(6-(trifluoromethyl)pyridin-3-yl)cyclohexyl)methyl)-2-methylbenzamide], the IC50 amounted to 2.6 nM.

For `O=C(NCC(c1cnc(C(F)(F)F)nc1)C1CCC(F)(F)CC1)c1cccc(F)c1Cl` (single isomer, unassigned; (-)) [(−)2-chloro-N-[2-(4,4-difluorocyclohexyl)-2-[2-(trifluoromet] [(−)2-chloro-N-[2-(4,4-difluorocyclohexyl)-2-[2-(trifluoromethyl)pyrimidin-5-yl]ethyl]-3-fluoro-benzamide], the IC50 was found to be 44 nM.

Consider `Cc1ncc(C(CNC(=O)c2cccc(F)c2Cl)C2CCOCC2)cn1` (stereo not shown) [2-chloro-3-fluoro-N-[2-(2-methylpyrimidin-5-yl)-2-tetrahydropyran-4-yl-ethyl]benzamide], for which the half-maximal inhibitory concentration (IC50) was 210 nM.

Take `COc1cccc(C(=O)NCC(CC2CC2)c2cnc(C(F)(F)F)nc2)c1Cl` (single isomer, unassigned; (+)) [(+)2-chloro-N-[3-cyclopropyl-2-[2-(trifluoromethyl)pyrimidin] [(+)2-chloro-N-[3-cyclopropyl-2-[2-(trifluoromethyl)pyrimidin-5-yl]propyl]-3-methoxy-benzamide]: the IC50 is 14 nM.

In the case of `O=C(NCC1(c2ccc(F)nc2)CCC(F)(F)CC1)c1cccc(Cl)c1Cl` [2,3-dichloro-N-[[4,4-difluoro-1-(6-fluoro-3-pyridyl)cyclohexyl]methyl]benzamide], the IC50 is 0.28 nM.
